pKi: −log10 of the molar value.
Experiments:
Histamine H3 receptor [1] = target: T1, Histamine H3 receptor (Homo sapiens, UniProt Q9Y5N1); test: Antagonist activity at human histamine H3 receptor; format: functional; details: read-out: pA2 (converted)
Histamine H3 receptor [2] = target: T1, Histamine H3 receptor; test: Binding affinity to human histamine H3 receptor
[3] = Drug level in mouse brain at 10 mg/kg, ip after 2 hrs; format: ADME, organism-based; parameters: dose 10 mg/kg, route intraperitoneal; details: read-out: Drug uptake
[4] = Ratio of log AUC in brain to plasma in mouse at 10 mg/kg, ip; format: ADME, organism-based; parameters: dose 10 mg/kg, route intraperitoneal; details: brain and plasma, read-out: BPR
[5] = Mean residence time in mouse plasma at 10 mg/kg, ip; format: ADME, organism-based; parameters: dose 10 mg/kg, route intraperitoneal
[6] = target: Kappa-type opioid receptor (Homo sapiens, UniProt P41145); test: Binding affinity to kappa opioid receptor
Rattus norvegicus [7] = test: Increase in dopamine level in rat brain at 3 mg/kg, sc within 4 hrs relative to basal level; format: ADME, organism-based; parameters: dose 3 mg/kg, route subcutaneous; details: in vivo
[8] = target: Sodium-dependent noradrenaline transporter (Homo sapiens, UniProt P23975); test: Binding affinity to NET
[9] = Plasma concentration in mouse at 10 mg/kg, ip after 15 mins; format: ADME, organism-based; parameters: dose 10 mg/kg, route intraperitoneal
Rattus norvegicus [10] = test: Increase in 5-hydroxytryptamine level in rat brain at 3 mg/kg, sc within 4 hrs relative to basal level; format: ADME, organism-based; parameters: dose 3 mg/kg, route subcutaneous; details: in vivo
[11] = target: Sodium-dependent dopamine transporter (Homo sapiens, UniProt Q01959); test: Binding affinity to DAT
[12] = Mean residence time in mouse brain at 10 mg/kg, ip; format: ADME, organism-based; parameters: dose 10 mg/kg, route intraperitoneal

T1 sequence (Q9Y5N1 whole entry): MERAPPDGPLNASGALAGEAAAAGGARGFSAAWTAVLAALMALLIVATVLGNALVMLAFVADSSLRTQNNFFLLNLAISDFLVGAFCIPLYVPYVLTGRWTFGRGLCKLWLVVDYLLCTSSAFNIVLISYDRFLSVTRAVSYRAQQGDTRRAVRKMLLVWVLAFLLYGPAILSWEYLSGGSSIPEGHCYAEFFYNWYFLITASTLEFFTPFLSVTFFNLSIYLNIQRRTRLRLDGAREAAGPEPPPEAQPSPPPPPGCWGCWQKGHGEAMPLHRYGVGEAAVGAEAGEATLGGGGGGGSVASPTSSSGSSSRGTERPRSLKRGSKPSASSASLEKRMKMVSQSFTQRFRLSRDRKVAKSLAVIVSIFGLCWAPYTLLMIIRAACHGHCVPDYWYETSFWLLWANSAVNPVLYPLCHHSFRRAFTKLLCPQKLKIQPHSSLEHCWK
Sequence of Sodium-dependent noradrenaline transporter (P23975 whole entry): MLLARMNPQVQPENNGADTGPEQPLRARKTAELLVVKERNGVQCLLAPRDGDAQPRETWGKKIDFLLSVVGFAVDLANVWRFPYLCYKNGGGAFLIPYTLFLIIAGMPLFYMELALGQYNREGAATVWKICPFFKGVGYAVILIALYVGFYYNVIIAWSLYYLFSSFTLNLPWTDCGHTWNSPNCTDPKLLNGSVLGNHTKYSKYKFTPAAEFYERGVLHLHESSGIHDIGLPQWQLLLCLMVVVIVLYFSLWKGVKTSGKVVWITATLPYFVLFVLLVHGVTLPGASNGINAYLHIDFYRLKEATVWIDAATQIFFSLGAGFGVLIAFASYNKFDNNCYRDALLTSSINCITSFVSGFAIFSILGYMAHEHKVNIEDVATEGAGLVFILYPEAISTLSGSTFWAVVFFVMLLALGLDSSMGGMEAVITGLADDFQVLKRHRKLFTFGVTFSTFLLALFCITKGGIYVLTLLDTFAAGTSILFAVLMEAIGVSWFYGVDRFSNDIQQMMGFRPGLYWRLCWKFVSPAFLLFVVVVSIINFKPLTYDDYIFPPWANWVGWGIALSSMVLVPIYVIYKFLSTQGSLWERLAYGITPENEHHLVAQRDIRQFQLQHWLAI
Sequence of Sodium-dependent dopamine transporter (Q01959 whole entry): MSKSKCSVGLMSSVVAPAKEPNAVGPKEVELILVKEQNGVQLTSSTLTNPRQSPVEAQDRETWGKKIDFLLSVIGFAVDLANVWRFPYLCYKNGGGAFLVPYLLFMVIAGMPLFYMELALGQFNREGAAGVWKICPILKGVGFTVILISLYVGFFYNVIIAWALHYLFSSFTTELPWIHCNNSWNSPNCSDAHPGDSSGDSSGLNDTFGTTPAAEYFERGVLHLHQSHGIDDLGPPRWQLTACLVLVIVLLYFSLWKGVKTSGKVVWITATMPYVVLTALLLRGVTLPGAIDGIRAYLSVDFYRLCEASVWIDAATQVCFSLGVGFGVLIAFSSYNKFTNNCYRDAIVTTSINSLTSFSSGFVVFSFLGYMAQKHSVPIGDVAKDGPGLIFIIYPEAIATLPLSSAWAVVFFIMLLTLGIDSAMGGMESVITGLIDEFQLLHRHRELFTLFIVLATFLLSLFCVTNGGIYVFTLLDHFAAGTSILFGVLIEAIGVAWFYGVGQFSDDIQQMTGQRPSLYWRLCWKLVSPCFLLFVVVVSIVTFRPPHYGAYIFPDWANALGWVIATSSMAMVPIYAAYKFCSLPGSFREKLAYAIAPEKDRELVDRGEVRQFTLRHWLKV
Sequence of Kappa-type opioid receptor (P41145 whole entry): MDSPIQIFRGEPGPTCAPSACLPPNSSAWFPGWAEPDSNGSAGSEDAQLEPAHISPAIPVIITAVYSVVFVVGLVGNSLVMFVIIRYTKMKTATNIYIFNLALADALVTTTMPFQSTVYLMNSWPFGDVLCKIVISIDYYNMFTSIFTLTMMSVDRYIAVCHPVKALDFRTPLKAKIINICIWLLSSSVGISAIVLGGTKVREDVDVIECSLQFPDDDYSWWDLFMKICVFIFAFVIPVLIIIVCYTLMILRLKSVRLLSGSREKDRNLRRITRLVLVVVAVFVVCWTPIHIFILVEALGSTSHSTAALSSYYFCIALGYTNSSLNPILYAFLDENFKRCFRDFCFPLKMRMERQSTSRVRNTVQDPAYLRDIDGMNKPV

Kb (Histamine H3 receptor [1]) | pKi (Histamine H3 receptor [2]) | Structure (SMILES) | also measured
3.16 nM | 8.52 | c1cc([C@@H]2CN3CCC[C@@H]3c3cc(OCCCN4CCOCC4)ccc32)cs1 | –
3.16 nM | 8.43 | c1ncc([C@@H]2CN3CCC[C@@H]3c3cc(OCCCN4CCOCC4)ccc32)s1 | –
3.16 nM | 8.57 | c1ccc([C@@H]2CN3CCC[C@@H]3c3cc(OCCCN4CCOCC4)ccc32)nc1 | –
3.16 nM | 8.48 | c1csc([C@@H]2CN3CCC[C@@H]3c3cc(OCCCN4CCOCC4)ccc32)n1 | –
3.16 nM | 8.40 | c1cnc([C@@H]2CN3CCC[C@@H]3c3cc(OCCCN4CCOCC4)ccc32)cn1 | –
3.16 nM | 8.40 | c1cc([C@@H]2CN3CCC[C@@H]3c3cc(OCCCN4CCOCC4)ccc32)[nH]n1 | –
3.16 nM | 8.80 | c1cncc([C@@H]2CN3CCC[C@@H]3c3cc(OCCCN4CCOCC4)ccc32)c1 | –

Further lines, the molecule ahead of its results:

Structure (SMILES) | Kb (Histamine H3 receptor [1]) | pKi (Histamine H3 receptor [2]) | also measured
c1cnn(-c2ccc([C@@H]3CN4CCC[C@@H]4c4cc(OCCCN5CCOCC5)ccc43)cc2)c1 | 3.16 nM | 8.28 | –
c1cncc([C@@H]2CN3CCC[C@@H]3c3cc(OCCCN4CCCCC4)ccc32)c1 | 3.16 nM | 9.10 | concentration at 2 h [3]: 920 nM; Kp [4]: 0.75; MRT [5]: 6.57 h; pKi [6]: 7.13; Activity (Rattus norvegicus [7]): 500%; pKi [8]: 6.34; concentration at 0.25 h [9]: 1430 nM; Activity (Rattus norvegicus [10]): 300%; pKi [11]: 6.97; MRT [12]: 31.3 h
c1cc([C@@H]2CN3CCC[C@@H]3c3cc(OCCCN4CCCCC4)ccc32)ccn1 | 3.16 nM | 9.00 | –
c1ccn2c([C@@H]3CN4CCC[C@@H]4c4cc(OCCCN5CCOCC5)ccc43)cnc2c1 | 3.16 nM | 8.70 | –
c1cn(-c2ccc([C@@H]3CN4CCC[C@@H]4c4cc(OCCCN5CCOCC5)ccc43)cc2)cn1 | 3.16 nM | 8.24 | –
c1ccc([C@@H]2CN3CCC[C@@H]3c3cc(OCCCN4CCCCC4)ccc32)nc1 | 3.16 nM | 9.10 | –

— ChEMBL document CHEMBL1140667, “Pyrrolidino-tetrahydroisoquinolines bearing pendant heterocycles as potent dual H3 antagonist and serotonin transporter inhibitors” (Bioorg Med Chem Lett, 2007)
